# Laboratory results: paper PMC9394386 (Cancer Discovery, 2022)
# Where “and” joins values, the source holds several entries; their conditions need not be identical. Equal entries are not always repeated. Positions of bridges follow the written chain, without caps; N, C: chain ends. Non-standard residues stand in square brackets, D forms with d. Residues, ends and D or L forms follow the SMILES beside them. NMeF = CN[C@@H](Cc1ccccc1)C(=O)O; NMeNle = CCCC[C@H](NC)C(=O)O; Sar = CNCC(=O)O
# Legend:
# MC38 huPD-L1 tumors [1] = assay: MC38 huPD-L1 tumor efficacy in C57BL/6 mice; type: in vivo, mouse
# [2] = tested on: human T cells with CHO PD-L1 cells; assay: Artificial antigen-presenting cell system, IFNγ secretion; type: cell-based; settings: for Maximal levels of IFNγ, induction: atezolizumab at 10 nmol/L
# PD-L1 in CHO PD-L1 cells [3] = biological target: T1, PD-L1 in CHO PD-L1 cells (Homo sapiens, UniProt Q9NZQ7); assay: Confocal microscopy of PD-L1 internalization; type: cell-based; settings: 18 hours, INCB086550 1 µmol/L, atezolizumab 10 µg/mL
# T1 sequence (Q9NZQ7 19-290): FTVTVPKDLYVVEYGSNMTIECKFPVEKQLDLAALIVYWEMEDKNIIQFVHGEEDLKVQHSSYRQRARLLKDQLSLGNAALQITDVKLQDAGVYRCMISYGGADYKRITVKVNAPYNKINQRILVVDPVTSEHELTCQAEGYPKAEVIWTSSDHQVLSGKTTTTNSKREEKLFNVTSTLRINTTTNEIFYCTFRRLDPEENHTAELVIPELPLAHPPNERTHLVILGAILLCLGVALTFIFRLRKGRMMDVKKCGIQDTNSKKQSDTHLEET
# PD-L1 (aa 19-239) [4] = biological target: T2, PD-L1 (aa 19-239) (Homo sapiens, UniProt Q9NZQ7); assay: SEC-MALS of PD-L1 complexes; type: binding; settings: 15 µmol/L PD-L1, 100 µmol/L compound
# T2 sequence (Q9NZQ7 19-239): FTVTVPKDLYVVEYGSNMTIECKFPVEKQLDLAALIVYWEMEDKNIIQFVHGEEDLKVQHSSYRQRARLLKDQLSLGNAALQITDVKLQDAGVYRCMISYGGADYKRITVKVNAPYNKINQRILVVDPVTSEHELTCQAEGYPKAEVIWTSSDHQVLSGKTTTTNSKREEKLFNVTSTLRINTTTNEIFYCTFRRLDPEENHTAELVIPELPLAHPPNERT
# [5] = biological target: Human PD-L1-FLAG tag protein (Homo sapiens, UniProt Q9NZQ7); assay: SPR antibody competition; type: binding; settings: 1 µM
# Human PD-L1-FLAG tag protein, sequence (Q9NZQ7 19-290): as the sequence (Q9NZQ7 19-290) above
# human PD-L2 = human PD-L2 (Homo sapiens, UniProt Q9BQ51); assay: PD-L2/PD-1 HTRF binding assay
# human PD-L2, sequence (Q9BQ51 20-219 limits assumed): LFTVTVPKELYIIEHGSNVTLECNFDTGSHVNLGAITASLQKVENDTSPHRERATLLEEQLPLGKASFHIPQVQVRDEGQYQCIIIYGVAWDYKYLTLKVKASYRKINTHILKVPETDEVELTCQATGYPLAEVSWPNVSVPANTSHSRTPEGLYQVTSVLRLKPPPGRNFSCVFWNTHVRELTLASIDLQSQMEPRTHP
# [6] = tested on: PD-1–mediated SHP recruitment; assay: PD-1–SHP reporter assay; type: cell-based; settings: read-out: IC50, SHP recruitment
# PD-L1 on CHO PD-L1 cells [7] = biological target: T3, PD-L1 on CHO PD-L1 cells (Homo sapiens, UniProt Q9NZQ7); assay: Cell-based PD-1 binding assay; settings: concentrations ≥160 nmol/L
# T3 sequence (Q9NZQ7 19-290): as the sequence (Q9NZQ7 19-290) above
# mouse PD-L1 = mouse PD-L1 (Mus musculus, UniProt Q9EP73); assay: PD-L1/PD-1 HTRF binding assay, mouse PD-L1
# mouse PD-L1, sequence (Q9EP73 19-238 limits assumed): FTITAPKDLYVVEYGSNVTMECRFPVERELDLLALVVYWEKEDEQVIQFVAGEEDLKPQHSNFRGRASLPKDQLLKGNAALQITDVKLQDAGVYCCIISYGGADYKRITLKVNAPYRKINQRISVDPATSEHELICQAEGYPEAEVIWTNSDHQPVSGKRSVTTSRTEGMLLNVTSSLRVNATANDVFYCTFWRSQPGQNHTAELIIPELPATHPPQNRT
# [8] = 28-day toxicology study in rats; type: in vivo, rat
# PD-L1 in CHO PD-L1 cells [9] = biological target: T1, PD-L1 in CHO PD-L1 cells; assay: Total PD-L1 by Western blot; type: cell-based; settings: 0.2 or 1 µM
# PD-L1 [10] = biological target: T4, PD-L1 (Homo sapiens, UniProt Q9NZQ7); assay: Flow cytometry competition with anti–PD-L1 mAbs on CHO PD-L1 cells; type: cell-based; settings: 1 µmol/L
# Target sequence in this assay (Q9NZQ7 19-290): as the sequence (Q9NZQ7 19-290) above
# [11] = biological target: human PD-L1 on MBT2 clones (Homo sapiens, UniProt Q9NZQ7); assay: Isogenic MBT2 cell line PD-L1 internalization; type: cell-based; settings: EC50, PD-L1 internalization (MIH1), 16 hours
# human PD-L1 on MBT2 clones, sequence (Q9NZQ7 19-127 limits assumed): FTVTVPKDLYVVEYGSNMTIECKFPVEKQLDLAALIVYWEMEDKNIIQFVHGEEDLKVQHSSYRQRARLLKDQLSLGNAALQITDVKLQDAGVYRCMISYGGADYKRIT
# [12] = 28-day toxicology study in monkeys; type: in vivo, monkey
# PD-L1 on monocytes [13] = biological target: PD-L1 on monocytes (Macaca fascicularis, UniProt G7PSE7); assay: Unoccupied PD-L1 on monocytes in cynomolgus whole blood; type: cell-based, cynomolgus monkey; settings: read-out: EC50, reducing unoccupied cell-surface PD-L1 on monocytes
# PD-L1 on monocytes (Macaca fascicularis, UniProt G7PSE7), sequence (G7PSE7 19-290): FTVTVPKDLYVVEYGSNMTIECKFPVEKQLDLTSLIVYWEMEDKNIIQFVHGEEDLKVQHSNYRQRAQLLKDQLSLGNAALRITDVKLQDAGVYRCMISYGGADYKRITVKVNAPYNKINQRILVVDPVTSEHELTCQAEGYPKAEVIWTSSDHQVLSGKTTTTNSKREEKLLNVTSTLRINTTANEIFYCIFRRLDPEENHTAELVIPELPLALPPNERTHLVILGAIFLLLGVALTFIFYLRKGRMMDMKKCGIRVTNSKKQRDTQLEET
# MC38 huPD-L1 tumors [14] = assay: MC38 huPD-L1 tumor efficacy in NSG mice; type: in vivo, mouse; settings: NSG mice, 2, 20, 200 mg/kg b.i.d.
# PD-L1 (aa 19-239) [15] = biological target: T2, PD-L1 (aa 19-239); assay: Isothermal titration calorimetry; type: binding
# PD-L1 on CHO PD-L1 cells [16] = biological target: T3, PD-L1 on CHO PD-L1 cells; assay: Live-cell imaging of PD-L1 internalization; type: cell-based; settings: 1 µmol/L
# PD-L1 on monocytes [17] = biological target: T5, PD-L1 on monocytes (Homo sapiens, UniProt Q9NZQ7); assay: Unoccupied PD-L1 on monocytes in human whole blood; type: cell-based
# T5 sequence (Q9NZQ7 19-290): as the sequence (Q9NZQ7 19-290) above
# NFAT signaling = assay: NFAT reporter assay; type: cell-based; settings: read-out: NFAT activation (IC50 in Table 1, EC50 in text)
# PD-L1 [18] = biological target: T4, PD-L1; assay: PD-L1/PD-1 HTRF binding assay, human PD-L1
# Target sequence in this assay (Q9NZQ7 19-238 limits assumed): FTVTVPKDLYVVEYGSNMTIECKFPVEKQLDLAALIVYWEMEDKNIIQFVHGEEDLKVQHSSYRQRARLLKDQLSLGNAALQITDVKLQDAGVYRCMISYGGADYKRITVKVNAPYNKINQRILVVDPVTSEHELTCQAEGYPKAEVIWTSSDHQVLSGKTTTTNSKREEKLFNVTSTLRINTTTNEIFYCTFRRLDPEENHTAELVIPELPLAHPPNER
# rat PD-L1 = rat PD-L1 (Rattus norvegicus, UniProt D4AE25); assay: PD-L1/PD-1 HTRF binding assay, rat PD-L1; settings: human PD-1
# rat PD-L1, sequence (D4AE25 19-238): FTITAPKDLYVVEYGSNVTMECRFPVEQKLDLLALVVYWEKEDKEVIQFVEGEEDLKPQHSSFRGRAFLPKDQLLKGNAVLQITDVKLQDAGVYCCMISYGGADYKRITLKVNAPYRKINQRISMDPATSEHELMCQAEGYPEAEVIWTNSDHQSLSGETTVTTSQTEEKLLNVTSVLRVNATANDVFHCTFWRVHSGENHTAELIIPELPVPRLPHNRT
# rat PD-L1, sequence (Q15116 25-167 partner): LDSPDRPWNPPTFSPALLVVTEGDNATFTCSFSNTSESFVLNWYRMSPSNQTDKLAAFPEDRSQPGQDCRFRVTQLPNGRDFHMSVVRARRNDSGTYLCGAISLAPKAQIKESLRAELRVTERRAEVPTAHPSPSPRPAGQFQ
# target lesion = assay: Clinical activity in phase I study; type: in vivo, human; settings: patient, week 24
# MDA-MB-231 tumors = assay: MDA-MB-231 tumor efficacy in NSG mice; type: in vivo, mouse; settings: 20 mg/kg
# [19] = biological target: PD-L1 on MC38 huPD-L1 tumors (Homo sapiens, UniProt Q9NZQ7); assay: PD-L1 levels on MC38 huPD-L1 tumors; type: in vivo, mouse; settings: 200 mg/kg, clone MIH1
# PD-L1 on MC38 huPD-L1 tumors, sequence (Q9NZQ7 19-290): as the sequence (Q9NZQ7 19-290) above
# PD-L1 on monocytes [20] = biological target: T5, PD-L1 on monocytes; assay: Available PD-L1 on monocytes from clinical study patients; type: in vivo
# [21] = tested on: plasma CXCL9, CXCL10, IFNγ, PD-L1; assay: Proteins in peripheral blood of phase I patients; type: in vivo, human
# cynomolgus PD-L1 = cynomolgus PD-L1 (Macaca fascicularis, UniProt G7PSE7); assay: PD-L1/PD-1 HTRF binding assay, cynomolgus PD-L1
# cynomolgus PD-L1, sequence (G7PSE7 19-239): as the sequence (Q9NZQ7 19-239) above, with A33T, A34S, S62N, R68Q, Q82R, F173L, T185A, T192I, H215L counted along it
# cynomolgus PD-L1, sequence (Q15116 25-167 partner): as the sequence (Q15116 25-167 partner) above
# Tolerability in mice = settings: mouse, in vivo
# PD-L1 on CHO PD-L1 cells [22] = biological target: T3, PD-L1 on CHO PD-L1 cells; assay: Unoccupied and total PD-L1 by flow cytometry; type: cell-based; settings: 18 hours
# [23] = all tested doses up to 1,000 mg/kg
molecule,measurement,setting,value
atezolizumab: clinical anti–PD-L1 monoclonal antibody [reference compound],tumor growth inhibition (TGI),MC38 huPD-L1 tumors [1]; 5 mg/kg intraperitoneally every 5 days,73%
same,"Maximal levels of IFNγ, induction",[2],433%
same,"PD-L1 internalization, clone 28-8 staining",PD-L1 in CHO PD-L1 cells [3],only minor levels of PD-L1 internalization
"CCCC[C@H]1C(=O)N(C)CC(=O)N[C@@H](CC(=O)O)C(=O)N[C@@H](C(C)C)C(=O)N(C)[C@@H](Cc2ccccc2)C(=O)N[C@@H](Cc2ccc(O)cc2)C(=O)N(C)CC(=O)N[C@@H](Cc2c[nH]c3ccccc23)C(=O)N[C@@H](Cc2ccc(O)cc2)C(=O)N[C@@H](CC(C)C)C(=O)N[C@H](C(=O)NCC(N)=O)CSCC(=O)N[C@@H](Cc2ccccc2)C(=O)N(C)[C@@H](Cc2ccccc2)C(=O)N1C [peptide 71, reference compound] ({CH2CO}-F[NMeF][NMeNle][Sar]DV[NMeF]Y[Sar]WYLCG-NH2; thioether N-13; N-terminus and C-terminus assumed)",SEC-MALS peak of PD-L1 in presence of compound,PD-L1 (aa 19-239) [4],approximately 33 kDa
Cc1c(Nc2nccc3cc(CN4CC[C@@H](O)C4)cnc23)cccc1-c1cccc(-c2nc3cc(CN4CC[C@@H](C(=O)O)C4)cc(C#N)c3o2)c1C [INCB086550],Binding of atezolizumab and durvalumab to PD-L1 (SPR),[5],inhibited binding
same,IC50,human PD-L2,> 10000 nM
same,Inhibition of binding of PD-L2 to human PD-1,human PD-L2; concentrations up to 10 µmol/L,not inhibited
same,IC50,[6],6.3 ± 2.5 nM
same,tumor growth inhibition (TGI),"MC38 huPD-L1 tumors [1]; 2 mg/kg p.o. b.i.d., day 16",32%
same,tumor growth inhibition (TGI),"MC38 huPD-L1 tumors [1]; 20 mg/kg p.o. b.i.d., day 16",66%
same,tumor growth inhibition (TGI),"MC38 huPD-L1 tumors [1]; 200 mg/kg p.o. b.i.d., day 16",69%
same,Inhibition of PD-1/PE binding,PD-L1 on CHO PD-L1 cells [7],> 90%
same,IC50,mouse PD-L1,> 10000 nM
same,Binding to mouse PD-L1,mouse PD-L1; HTRF,not detected
same,"Dose at which associated events were observed (minimal to mild, nonadverse)",[8],"1,000 mg/kg/day"
same,Tolerability,[8]; [23],well tolerated
same,Change in total PD-L1 in cells,PD-L1 in CHO PD-L1 cells [9],decrease of overall PD-L1
same,Binding of atezolizumab and durvalumab to PD-L1 after pretreatment,PD-L1 [10],blocked binding
same,EC50,[11]; MBT2-PD-L1 high,0.1 nM
same,EC50,[11]; MBT2-PD-L1 low,3.7 nM
same,EC50,[11]; MBT2-PD-L1 medium,0.4 nM
same,Tolerability,[12]; [23],well tolerated
same,Doses with emesis,[12]; no evidence of target organ toxicity,≥ 200 mg/kg/day
same,EC50,PD-L1 on monocytes [13],4.5 nM
same,Antitumor activity in immunodeficient mice,MC38 huPD-L1 tumors [14],abolished
same,Binding stoichiometry n (ITC),PD-L1 (aa 19-239) [15],0.6
same,Time to maximal PD-L1 internalization,PD-L1 on CHO PD-L1 cells [16],~4 h
same,EC50,PD-L1 on monocytes [17],88 nM
same,IC90,PD-L1 on monocytes [17]; read-out: whole blood IC90,792 nM
same,EC50,NFAT signaling,21.4 ± 8.4 nM
same,IC50,PD-L1 [18],3.1 ± 1.2 nM
same,IC50,rat PD-L1,1.9 nM and < 1.5 nM
same,Preliminary clinical activity,target lesion,decrease in target lesion volume
same,Antitumor activity in immunodeficient mice,MDA-MB-231 tumors,abolished
same,Maximum reduction of occupied PD-L1,[19],> 90%
same,Dose reaching maximum inhibition of free PD-L1,PD-L1 on monocytes [20],200 mg b.i.d.
same,Increase in plasma cell-free PD-L1 vs baseline,"[21]; all dose levels, cycle 2 day 1",1.4 fold
same,Increase in plasma IFNγ vs baseline,[21]; cycle 1 day 8,3.8 fold
same,Increase in plasma CXCL9 vs baseline,[21]; cycle 2 day 1,1.8 fold
same,Increase in plasma CXCL10 vs baseline,[21]; cycle 2 day 1,1.4 fold
same,IC50,cynomolgus PD-L1,4.9 ± 1.6 nM
same,"Maximal levels of IFNγ, induction",[2],425%
same,Toxicity to cells,[2]; cell-based assays,No overt toxicity
same,Adverse effects in mice,Tolerability in mice,no adverse effects
same,"Epitope occupancy of PD-L1, clone MIH1",PD-L1 on CHO PD-L1 cells [22],> 90%
same,"Reduction of PD-L1 staining, clone 28-8 (total cell-surface PD-L1)",PD-L1 on CHO PD-L1 cells [22],approximately 70%
same,SEC-MALS peak of PD-L1 in presence of compound,PD-L1 (aa 19-239) [4],~69 kDa
same,"PD-L1 internalization, clone 28-8 staining",PD-L1 in CHO PD-L1 cells [3],internalization of PD-L1 and increased cytoplasmic staining
